Entries after “also recorded” stand apart in the source; their conditions may differ.
Columns and labels:
[1] = Example 1: plasma hormone concentrations (radioimmunoassays)
Excerpt: The purpose of this study was to determine the effect manipulating blood levels of thyroid hormones and/or growth hormone on growth performance and body composition of broiler chickens. […] Purified natural chicken growth hormone (ncGH) was obtained from the Research and Education Center, Harbor-UCLA Medical Center, Torrance, Calif. […] The premix (200 g) was then used to prepare 50 kg batches of each experimental diet according to the formula for broiler-finisher ration described in Table 1. The diet containing 0.5% PTU was prepared by mixing 250 g of PTU into 49.75 kg of the basal ration (Table 1).
Broiler cockerels (Ross X Arbor Acre strain) were raised to 3 weeks-of-age in a battery-brooder and then transferred to wire grow-out cages (4 birds/pen) held in two controlled-environment rooms (10 pens/room). Beginning at 3 weeks of age, eight birds (2 pens of 4 birds) were randomly assigned to each of 10 treatments. The chickens were provided the experimental diets and water ad libitum. […] For injection, the ncGH was reconstituted in sterile 0.025M sodium bicarbonate buffer (pH 9.8). The 10 treatments were administered for 21 days (i.e., from 3 to 6 weeks of age).
Measurement of body weight and feed consumption at weekly intervals allowed calculation of the average daily gain (ADG, g/bird/day), average daily feed consumption (ADFC, g/bird/day) and the feed-to-gain ratio (FIG, kg feed/kg gain) over the 21 day experimental period. Blood samples were taken each week (4, 5, and 6 weeks) just before (pre-injection) and 4 hours post-injection of ncGH. […] At the conclusion of the study, birds were killed and the carcasses frozen for proximate analysis. The frozen carcasses were ground in a meat grinder and aliquots of each ground carcass taken for determination of moisture, protein, fat and ash by established analytical procedures (Official Method of Analysis, Edition 13, W. Horwitz ed., Association of Official Analytical Chemist, Washington, D.C., 1980). Body composition data are presented as a percent of live weight at 6 weeks-of-age. Least squares regression analysis was used to test for significant differences (P<0.05) due treatment.

[2] = 0.25 to 1 ppm in feed throughout entire growth cycle; cited from earlier work
[3] = supplemented diets; cited from earlier work

N[C@@H](Cc1cc(I)c(Oc2ccc(O)c(I)c2)c(I)c1)C(=O)O [T3, 3,3',5-triiodo-L-thyronine]
I/G Molar Ratio ([1]; Group 1, dietary, N = 24): 0.51 | plasma Glucagon (G) ([1]; Group 1, dietary, N = 24): 491 pg/mL | plasma Insulin (I) ([1]; Group 1, dietary, N = 24): 409 pg/mL | effect on insulin and glucagon secretion ([1]; dietary T3 / elevated plasma T3): inhibit insulin secretion whereas glucagon secretion is enhanced; also recorded: depresses insulin secretion while glucagon secretion is increased | plasma I/G molar ratio, fold lower ([1]; vs CF birds (P<0.05)): 4.3 times | plasma GH level, reduction ([1]; vs CF treatment): 32% | plasma T4 level, reduction ([1]; vs average of CF and TRH treatments (P<0.05)): 58% | body weight gain, feed efficiency / growth performance [2]: reduced body weight gain and feed efficiency | depressed growth rate in dwarf strains [3]: restored to normal

Reference: patent US5168102A, “Endocrine manipulation to improve body composition of poultry” (priority 1990, dated 1992)
